Reference: ChEMBL document CHEMBL1201862, “PubChem BioAssay data set” (2004)
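Step 1: Grow cells in 96-well plates. Step 2: Expose to compound for 48 hours at 5 concentrations. Step 3: Interpolate endpoints linearly; if unreached, use highest concentration. GI50 marks 50% less growth.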 Active and inactive are the calls of the source. No stated cut-off is given here; in the data, active = GI50 up to about 1.1 µM and inactive = higher.

Assays:
Assay in all cases: growth of human tumour cells (NCI), 48 h
SK-OV-3 = tested on: SK-OV-3
A549 = tested on: A549
XF498 = tested on: XF498
UACC-62 = tested on: UACC-62
CAKI-1 = tested on: CAKI-1
PC-3 = tested on: PC-3
DMS-114 = tested on: DMS-114
IGROV-1 = tested on: IGROV-1
T47D = tested on: T47D
NCI-H522 = tested on: NCI-H522
OVCAR-8 = tested on: OVCAR-8
RXF 393 = tested on: RXF 393
A498 = tested on: A498
NCI-H460 = tested on: NCI-H460
NCI-H23 = tested on: NCI-H23
SNB-75 = tested on: SNB-75
EKVX = tested on: EKVX
MCF7 = tested on: MCF7
DMS-273 = tested on: DMS-273
MDA-MB-435 = tested on: MDA-MB-435
HCC 2998 = tested on: HCC 2998
DLD-1 = tested on: DLD-1
DU-145 = tested on: DU-145
SF-539 = tested on: SF-539
U-251 = tested on: U-251
SK-MEL-28 = tested on: SK-MEL-28
BT-549 = tested on: BT-549
SNB-78 = tested on: SNB-78
KM-20L2 = tested on: KM-20L2
TK-10 = tested on: TK-10
OVCAR-5 = tested on: OVCAR-5
786-0 = tested on: 786-0
SR = tested on: SR
SW-620 = tested on: SW-620
HOP-18 = tested on: HOP-18
CCRF-CEM = tested on: CCRF-CEM
M14 = tested on: M14
MDA-N = tested on: MDA-N
KM12 = tested on: KM12
SK-MEL-5 = tested on: SK-MEL-5
UACC-257 = tested on: UACC-257
NCI/ADR-RES = tested on: NCI/ADR-RES
OVCAR-4 = tested on: OVCAR-4
Hs-578T = tested on: Hs-578T
LOX IMVI = tested on: LOX IMVI
SNB-19 = tested on: SNB-19
HT-29 = tested on: HT-29
HOP-92 = tested on: HOP-92
NCI-H226 = tested on: NCI-H226
HCT-116 = tested on: HCT-116
M19-MEL = tested on: M19-MEL
ACHN = tested on: ACHN
SF-295 = tested on: SF-295
SF-268 = tested on: SF-268
COLO 205 = tested on: COLO 205
MDA-MB-231 = tested on: MDA-MB-231
HOP-62 = tested on: HOP-62
RPMI-8226 = tested on: RPMI-8226
Malme-3M = tested on: Malme-3M
OVCAR-3 = tested on: OVCAR-3
HL-60 = tested on: HL-60
K562 = tested on: K562
HCT-15 = tested on: HCT-15
LXFL 529 = tested on: LXFL 529
SN12C = tested on: SN12C
UO-31 = tested on: UO-31
MOLT-4 = tested on: MOLT-4
SK-MEL-2 = tested on: SK-MEL-2

## COCC(=O)OC1CCn2c1nc1c2C(=O)C(C)=C(NC(C)=O)C1=O (stereo not drawn)
SK-OV-3
  GI50: 15.4 µM (inactive)
A549
  GI50: 21.6 µM (inactive)
XF498
  GI50: 4.41 µM (inactive)
UACC-62
  GI50: 3.27 µM (inactive)
CAKI-1
  GI50: 16.2 µM (inactive)
PC-3
  GI50: 2.27 µM (inactive)
DMS-114
  GI50: 1.82 µM (inactive)
IGROV-1
  GI50: 14.5 µM (inactive)
T47D
  GI50: 0.787 µM (active)
NCI-H522
  GI50: 4.57 µM (inactive)
OVCAR-8
  GI50: 3.48 µM (inactive)
RXF 393
  GI50: 3.41 µM (inactive)
A498
  GI50: 27.9 µM (inactive)
NCI-H460
  GI50: 17.5 µM (inactive)
NCI-H23
  GI50: 7.85 µM (inactive)
SNB-75
  GI50: 5.42 µM (inactive)
EKVX
  GI50: 7.6 µM (inactive)
MCF7
  GI50: 1.84 µM (inactive)
DMS-273
  GI50: 17.5 µM (inactive)
MDA-MB-435
  GI50: 1.89 µM (inactive)
HCC 2998
  GI50: 13 µM (inactive)
DLD-1
  GI50: 12.9 µM (inactive)
DU-145
  GI50: 15.3 µM (inactive)
SF-539
  GI50: 3.94 µM (inactive)
U-251
  GI50: 6.05 µM (inactive)
SK-MEL-28
  GI50: 15.1 µM (inactive)
BT-549
  GI50: 11.7 µM (inactive)
SNB-78
  GI50: 1.81 µM (inactive)
KM-20L2
  GI50: 20.4 µM (inactive)
TK-10
  GI50: 18.2 µM (inactive)
OVCAR-5
  GI50: 8.57 µM (inactive)
786-0
  GI50: 6.73 µM (inactive)
SR
  GI50: 1.94 µM (inactive)
SW-620
  GI50: 7.4 µM (inactive)
HOP-18
  GI50: 27.9 µM (inactive)
CCRF-CEM
  GI50: 0.857 µM (active)
M14
  GI50: 11.1 µM (inactive)
MDA-N
  GI50: 1.85 µM (inactive)
KM12
  GI50: 15.7 µM (inactive)
SK-MEL-5
  GI50: 13.5 µM (inactive)
UACC-257
  GI50: 3.97 µM (inactive)
NCI/ADR-RES
  GI50: 4.49 µM (inactive)
OVCAR-4
  GI50: 1.85 µM (inactive)
Hs-578T
  GI50: 4.06 µM (inactive)
LOX IMVI
  GI50: 4.34 µM (inactive)
SNB-19
  GI50: 19.6 µM (inactive)
HT-29
  GI50: 9.93 µM (inactive)
HOP-92
  GI50: 1.98 µM (inactive)
NCI-H226
  GI50: 11.1 µM (inactive)
HCT-116
  GI50: 3.05 µM (inactive)
M19-MEL
  GI50: 11.7 µM (inactive)
ACHN
  GI50: 8.91 µM (inactive)
SF-295
  GI50: 16.3 µM (inactive)
SF-268
  GI50: 6.73 µM (inactive)
COLO 205
  GI50: 15.5 µM (inactive)
MDA-MB-231
  GI50: 1.24 µM (inactive)
HOP-62
  GI50: 21.5 µM (inactive)
RPMI-8226
  GI50: 2.33 µM (inactive)
Malme-3M
  GI50: 2.77 µM (inactive)
OVCAR-3
  GI50: 1.66 µM (inactive)
HL-60
  GI50: 1.43 µM (inactive)
K562
  GI50: 2.79 µM (inactive)
HCT-15
  GI50: 14.4 µM
LXFL 529
  GI50: 3.35 µM (inactive)
SN12C
  GI50: 7.26 µM (inactive)
UO-31
  GI50: 12.6 µM (inactive)
MOLT-4
  GI50: 1.14 µM (inactive)
SK-MEL-2
  GI50: 4.04 µM (inactive)
